Assays:
[1] = UV/Vis absorption (λmax, ε); assay type: physicochemical; set-up: ε at λmax: unit not given beside the values
[2] = Solubility in ethanol (25° C.); assay type: physicochemical

SMILES: CCCCCCCCCCCCC(CCCCCCCCCC)COc1nc(-c2ccc(O)cc2O)nc(-c2ccc(O)cc2O)n1 (stereo not drawn) [compound 101]
- UV/Vis λmax ([1]; EtOH): 350 nm
- ε at λmax ([1]; EtOH): 34482

SMILES: CCCCC(CC)COc1nc(-c2ccc(O)cc2O)nc(-c2ccc(O)cc2O)n1 (stereo not drawn) [compound 102]
- Solubility in ethanol [2]: 1.50%
- UV/Vis λmax ([1]; EtOH): 350 nm
- ε at λmax ([1]; EtOH): 39177

SMILES: CCCCCCCCC(CCCCCC)COc1nc(-c2ccc(O)cc2O)nc(-c2ccc(O)cc2O)n1 (stereo not drawn) [compound 104]
- UV/Vis λmax ([1]; EtOH): 351 nm
- ε at λmax ([1]; EtOH): 36148

SMILES: CCCCCCCCCCCCCCCCCCOc1nc(-c2ccc(O)cc2O)nc(-c2ccc(O)cc2O)n1 [compound 105]
- UV/Vis λmax ([1]; EtOH): 350 nm
- ε at λmax ([1]; EtOH): 31662

SMILES: COc1nc(-c2ccc(O)cc2O)nc(-c2ccc(O)cc2O)n1 [compound 107]
- Solubility in ethanol [2]: 0.08%
- UV/Vis λmax ([1]; EtOH): 350 nm
- ε at λmax ([1]; EtOH): 36949

SMILES: CCOc1nc(-c2ccc(O)cc2O)nc(-c2ccc(O)cc2O)n1 [compound 108]
- Solubility in ethanol [2]: 0.17%
- UV/Vis λmax ([1]; EtOH): 350 nm
- ε at λmax ([1]; EtOH): 36761

SMILES: CCCCCCCCCCCCC(CCCCCCCCCC)COc1nc(-c2ccc(OC)cc2O)nc(-c2ccc(OC)cc2O)n1 (stereo not drawn) [compound 110]
- UV/Vis λmax ([1]; Dioxan): 347 nm
- ε at λmax ([1]; Dioxan): 36219

SMILES: CCCCCCCCC(CCCCCC)COc1nc(-c2ccc(OC)cc2O)nc(-c2ccc(OC)cc2O)n1 (stereo not drawn) [compound 111]
- UV/Vis λmax ([1]; EtOH): 348 nm
- ε at λmax ([1]; EtOH): 34123

SMILES: COc1ccc(-c2nc(OC)nc(-c3ccc(OC)cc3O)n2)c(O)c1 [compound 112]
- UV/Vis λmax ([1]; Dioxan): 347 nm
- ε at λmax ([1]; Dioxan): 37680

From US6111103A, “Diresorcinyl-alkoxy- and -aryloxy-s-triazines” (Ciba Specialty Chemicals Corporation, priority 1998, dated 2000)
